Structures are written as SMILES.

The assay concerns the target T1, Mitochondrial import inner membrane translocase subunit TIM23 (Saccharomyces cerevisiae (strain ATCC 204508 / S288c), UniProt P32897).
T1 sequence (P32897 whole entry): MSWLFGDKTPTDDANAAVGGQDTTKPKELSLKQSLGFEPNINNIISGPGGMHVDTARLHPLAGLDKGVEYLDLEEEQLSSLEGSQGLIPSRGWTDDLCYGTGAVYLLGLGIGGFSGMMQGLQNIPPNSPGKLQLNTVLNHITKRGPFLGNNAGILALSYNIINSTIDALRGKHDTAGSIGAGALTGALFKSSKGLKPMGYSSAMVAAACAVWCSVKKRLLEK
Kind of assay: tim23-1 mutant yeast growth inhibitors, SAR follow-up, luminescence, S. cerevisiae (AID 602375).
In general, IC50 refers to the concentration at which inhibition is half-maximal. High values mean lower potency, low ones higher potency. For `Cc1ccc2nc(-n3c(O)c[nH]c3=S)sc2c1`, inhibition was half-maximal at 50.3 µM (IC50).

`C(=CN=Nc1nc2ccccc2[nH]1)Cc1ccccc1` [MLS000390936]: the IC50 came out at 11.2 µM. This IC50 lies about 4.5-fold lower than the previous one.

For `Cc1c2c(n(Cc3ccco3)c1C)N=CN1C=CS(=O)(=O)NC21` (stereo not given) [8-(furan-2-ylmethyl)-9,10-dimethyl-3,4-dihydropyrrolo[1,2]pyrimido[3,5-b][1,2,4]thiadiazine 2,2-dioxide], the IC50 is > 99 µM.

Turning to `CCOc1ccc2nc(-n3c(O)c[nH]c3=S)sc2c1` [3-(6-Ethoxy-benzothiazol-2-yl)-2-thioxo-imidazolidin-4-one], the IC50 was > 99 µM.

`Cc1ccc(C2NN=C(c3ccc(Cl)cc3Cl)S2)cc1` (stereo not given) [MLS-0463404.0001] had an IC50 of 44.3 µM.

The values are drawn from BindingDB's records for doi:10.7270/Q25D8QFV (Burnham Center For Chemical Genomics, 2012).
